Assay results taken from ChEMBL document CHEMBL3621146, “Design of Potent and Orally Active GPR119 Agonists for the Treatment of Type II Diabetes” (ACS Med Chem Lett, 2015).

Experiments:
[1] = Intrinsic clearance in rat liver microsomes; assay type: ADME; conditions: read-out: CLH
[2] = biological target: T1, Glucose-dependent insulinotropic receptor (Homo sapiens, UniProt Q8TDV5); test: Agonist activity at human GPR119 expressed in CHO cells by cAMP assay; assay type: functional, cell-based
T1 sequence (Q8TDV5 whole entry): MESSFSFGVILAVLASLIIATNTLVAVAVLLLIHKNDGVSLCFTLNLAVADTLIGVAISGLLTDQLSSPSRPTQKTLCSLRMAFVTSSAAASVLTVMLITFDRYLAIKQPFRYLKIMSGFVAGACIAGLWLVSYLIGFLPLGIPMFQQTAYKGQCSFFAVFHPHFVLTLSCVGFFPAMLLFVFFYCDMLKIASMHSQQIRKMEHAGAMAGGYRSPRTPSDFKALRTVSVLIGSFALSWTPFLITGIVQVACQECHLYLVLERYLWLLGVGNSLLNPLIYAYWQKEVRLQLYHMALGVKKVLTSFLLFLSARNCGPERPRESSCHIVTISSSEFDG

[3] = biological target: T2, Glucose-dependent insulinotropic receptor (Homo sapiens) (UniProt Q8TDV5); test: Agonist activity at human GPR119 by cAMP assay relative to control; assay type: functional; parameters: concentration or dose not given beside the values
T2 sequence (whole entry): T1 sequence (Q8TDV5 whole entry)

[4] = biological target: T3, Glucose-dependent insulinotropic receptor (Mus musculus, UniProt Q7TQP3); test: Agonist activity at mouse GPR119 by cAMP assay; assay type: functional
T3 sequence (Q7TQP3 whole entry): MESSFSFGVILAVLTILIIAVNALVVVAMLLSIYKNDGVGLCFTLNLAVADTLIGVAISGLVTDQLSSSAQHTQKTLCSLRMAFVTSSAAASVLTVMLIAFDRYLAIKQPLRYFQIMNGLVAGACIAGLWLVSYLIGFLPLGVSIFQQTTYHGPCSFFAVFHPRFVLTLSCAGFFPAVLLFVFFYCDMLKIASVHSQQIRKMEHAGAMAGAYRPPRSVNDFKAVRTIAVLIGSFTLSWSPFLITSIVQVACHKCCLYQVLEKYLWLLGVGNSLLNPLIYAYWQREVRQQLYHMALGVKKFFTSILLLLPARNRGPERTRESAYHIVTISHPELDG

[5] = biological target: T4, Glucose-dependent insulinotropic receptor (Mus musculus) (UniProt Q7TQP3); test: Agonist activity at mouse GPR119 by cAMP assay relative to control; assay type: functional; parameters: concentration or dose not given beside the values
T4 sequence (whole entry): T3 sequence (Q7TQP3 whole entry)

[6] = Lipophilicity, logD of the compound at pH 7 by HPLC method; assay type: physicochemical; conditions: buffer
[7] = Half life in Wistar Han rat at 0.5 mg/kg, iv LC-MS/MS method; assay type: ADME, organism-based; conditions: Wistar Han, in vivo
[8] = Volume of distribution in Wistar Han rat at 0.5 mg/kg, iv LC-MS/MS method; assay type: ADME, organism-based; conditions: Wistar Han, in vivo
[9] = Fraction unbound in rat plasma; assay type: ADME, cell-free
Rattus norvegicus = test: Unbound volume of distribution in Wistar Han rat at 0.5 mg/kg, iv LC-MS/MS method; assay type: ADME, organism-based; conditions: in vivo
[10] = Clearance in Wistar Han rat at 0.5 mg/kg, iv LC-MS/MS method; assay type: ADME, organism-based; conditions: in vivo

## CS(=O)(=O)c1ccc(COC[C@@H]2C[C@@H]2C2CCN(c3ncc(Cl)cn3)CC2)nc1
[1]
  CLint scaled: 553 mL/min/kg
[2]
  EC50: 8.7 nM
[3]
  Activity: 53%
[4]
  EC50: 3.6 nM
[5]
  Activity: 56%
[6]
  logD: 3.7
[7]
  half-life: 1.8 h
[8]
  Vd: 1.3 L/kg
[9]
  fraction unbound: 0.016
Rattus norvegicus
  Vdu: 81 L/kg
[10]
  clearance: 9 mL/min/kg
